Among the data in patent publication US20250282803A1, “DIDEHYDRO-3'-DEOXY-4'-ETHYNYLTHYMIDINES AND RELATED COMPOUNDS AND THEIR USE IN TREATING MEDICAL CONDITIONS” (ROME Therapeutics, Inc., priority 2022, published 2025) are IC50 values, retold here.

Assay [1] deals with T1, LINE1 reverse transcriptase (Homo sapiens, UniProt O00370). The assay can be described thus: Stable artificial-intron Cis LINE1 reporter assay. It is filed as cell-based. Also on record: host or cells: HeLa Tet-On 3G. Particulars: stable HeLa Tet-On 3G L1 reporter cells, doxycycline 500 ng/mL, 72 h; Firefly Luciferase activity. How it is done:
Exemplary compounds were tested for ability to inhibit LINE1 reverse transcriptase using a stable artificial-intron Cis LINE1 reporter assay. Assay procedures and results are described below.
A stable HeLa Tet-On 3G (Takara, cat no 631183) cell line expressing a bi-directional inducible LINE1 construct was generated as described in Xie, Y. et al. “Cell division promotes efficient retrotransposition in a stable L1 reporter cell line,” Mobile DNA (2013) 4:10. Single cell clones were screened for high Luciferase expression and the highest expression Firefly expressing clone was chosen for compound testing.
Test compounds were serially diluted in DMSO and spotted in 96-well plates. Subsequently the HeLa L1 artificial-intron reporter cells were plated into the compound-containing wells (8,000 cells/well), and the cells were induced for reporter expression with doxycycline (Sigma cat no D9891) at a final concentration of 500 ng/mL. Luminescence was measured 72 h after plating using the Dual-Glo Luciferase Assay System (Promega cat no E2940) following the manufacturer's instructions. The Firefly Luciferase activity was used to report LINE1 activity.

The target of assay [2] is T1, LINE1 reverse transcriptase. The assay can be described thus: Transient artificial-intron Cis LINE1 reporter assay. The format is cell-based. Particulars: HEK 293 cells, transient transfection; ratio FLuc/RLuc reports LINE1 activity. The method, then: The following compound (hereinafter “Test Compound”) was tested for ability to inhibit LINE1 reverse transcriptase using a transient artificial-intron Cis LINE1 reporter assay:
Additional exemplary compounds were also tested for ability to inhibit LINE1 reverse transcriptase using a transient artificial-intron Cis LINE1 reporter assay. Assay procedures and results are described below.
Intron-disrupted Firefly luciferase (FLuc) expression cassettes were generated as described by Xie, Y. et al. “Characterization of L1 retrotransposition with high-throughput dual-luciferase assays,” Nucleic Acid Res. (2011) Vol. 39, No. 3, e16. In addition, the plasmid contained an intact Renilla luciferase (RLuc) expression cassette on the vector backbone, in order to normalize transfection efficiency and measure potential cell toxicity.
HEK 293 cells were seeded in 96-well plates at 1,000 cells/well in 55 μL and grown for 24 hours. Cells were transfected with FuGeneHD (Promega) following the manufacturer's protocol. Each well received 0.133 ng plasmid, 0.4 μL FuGeneHD reagent, and 4.5 μL GlutaMAX-I-supplemented Opti-MEM I reduced-serum medium (Invitrogen). Cells were simultaneously treated with test compound serially diluted starting at 100 μM in a 3-fold dilution dose response.
Luminescence was measured using the Dual-Glo Luciferase Assay System (Promega) following the manufacturer's instructions. The ratio between FLuc and RLuc gene expression was used to report LINE1 activity.
Background: In a reporter assay the amount or activity of a reporter protein is the signal.

Molecules are shown by their SMILES.

T1 sequence (O00370 whole entry, looked up): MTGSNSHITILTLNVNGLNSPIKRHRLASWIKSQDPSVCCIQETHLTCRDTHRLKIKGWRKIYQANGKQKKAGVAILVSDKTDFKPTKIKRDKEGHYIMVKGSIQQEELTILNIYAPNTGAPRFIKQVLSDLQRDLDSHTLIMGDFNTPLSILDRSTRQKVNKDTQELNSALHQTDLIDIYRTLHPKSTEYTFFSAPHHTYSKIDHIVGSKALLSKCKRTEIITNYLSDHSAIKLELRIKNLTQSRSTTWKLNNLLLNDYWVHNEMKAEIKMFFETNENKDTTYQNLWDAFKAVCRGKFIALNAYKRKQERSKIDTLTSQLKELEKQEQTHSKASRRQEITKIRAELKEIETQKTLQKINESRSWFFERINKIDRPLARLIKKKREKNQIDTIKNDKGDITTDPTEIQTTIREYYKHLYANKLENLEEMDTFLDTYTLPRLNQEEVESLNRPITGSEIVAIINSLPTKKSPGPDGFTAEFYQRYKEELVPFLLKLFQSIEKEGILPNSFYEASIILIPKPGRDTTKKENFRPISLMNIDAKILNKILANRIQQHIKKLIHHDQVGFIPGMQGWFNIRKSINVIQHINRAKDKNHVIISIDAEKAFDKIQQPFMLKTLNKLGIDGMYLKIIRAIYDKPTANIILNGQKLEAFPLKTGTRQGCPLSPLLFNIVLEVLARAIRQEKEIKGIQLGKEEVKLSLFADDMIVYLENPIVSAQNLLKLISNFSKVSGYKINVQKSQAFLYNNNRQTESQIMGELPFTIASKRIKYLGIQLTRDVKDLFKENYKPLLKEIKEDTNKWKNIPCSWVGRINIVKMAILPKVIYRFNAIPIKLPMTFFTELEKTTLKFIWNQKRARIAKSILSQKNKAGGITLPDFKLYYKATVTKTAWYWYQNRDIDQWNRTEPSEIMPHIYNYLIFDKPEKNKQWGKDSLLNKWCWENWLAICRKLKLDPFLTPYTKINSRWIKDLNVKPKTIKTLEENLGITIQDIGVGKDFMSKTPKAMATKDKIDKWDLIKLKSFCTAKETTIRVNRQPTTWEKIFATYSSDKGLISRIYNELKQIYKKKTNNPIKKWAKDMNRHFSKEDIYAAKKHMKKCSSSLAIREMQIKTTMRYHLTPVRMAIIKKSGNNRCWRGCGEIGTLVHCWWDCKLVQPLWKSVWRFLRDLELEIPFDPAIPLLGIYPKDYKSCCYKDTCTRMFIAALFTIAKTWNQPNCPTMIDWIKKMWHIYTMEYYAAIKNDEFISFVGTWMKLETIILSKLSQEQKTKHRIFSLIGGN

One may read the IC50 as the point on the concentration scale where inhibition reaches its midpoint. For `C#C[C@@]1(COP(=O)(N[C@@H](C)C(=O)OCC(C)(C)C)Oc2cccc3ccccc23)C=C[C@H](n2cc(C)c(=O)[nH]c2=O)O1` (single isomer, unassigned) [P-Diastereomer 1 from Example 2; I-16 or III-1], the half-inhibitory concentration (IC50) in assay [1] and in assay [2] was 50 to 500 nM throughout. For `C#C[C@@]1(CO)C=C[C@H](n2cc(C)c(=O)[nH]c2=O)O1`, the IC50 in assay [1] is 50 to 500 nM. Still for that read-out and setting: then `C#C[C@@]1(COP(=O)(N[C@@H](C)C(=O)OC)Oc2ccccc2)C=C[C@H](n2cc(C)c(=O)[nH]c2=O)O1` (mixture of isomers) [Methyl ((((2R,5R)-2-Ethynyl-5-(5-methyl-2,4-dioxo-3,4-dihydropyrimidin-1(2H)-yl)-2,5-dihydrofuran-2-yl)methoxy)(phenoxy)phosphoryl)-L-alaninate], with > 500 nM. For the molecule `C#C[C@@]1(COP(=O)(NCc2ccccc2)OCCSC(=O)C(C)(C)CO)C=C[C@H](n2cc(C)c(=O)[nH]c2=O)O1` (single isomer, unassigned) [P-Diastereomer 2 from Example 3; II-1 or II-2], the IC50 in assay [2] is 50 to 500 nM. `C#C[C@@]1(COP(=O)(N[C@@H](C)C(=O)OCC(C)(C)C)Oc2cccc3ccccc23)C=C[C@H](n2cc(C)c(=O)[nH]c2=O)O1` (single isomer, unassigned) [P-Diastereomer 2 from Example 2; I-16 or III-1]: the IC50 in assay [1] is 50 to 500 nM; in assay [2], ≤ 50 nM. The corresponding values for `C#C[C@@]1(CO[P@@](=O)(N[C@@H](C)C(=O)OC(C)C)Oc2ccccc2)C=C[C@H](n2cc(C)c(=O)[nH]c2=O)O1` [Compound I-2, Isopropyl ((S)-(((2R,5R)-2-Ethynyl-5-(5-methyl-2,4-dioxo-3,4-dihydropyrimidin-1(2H)-yl)-2,5-dihydrofuran-2-yl)methoxy)(phenoxy)phosphoryl)-L-alaninate] are > 500 nM and 50 to 500 nM. The corresponding values for `C#C[C@@]1(CO[P@](=O)(N[C@@H](C)C(=O)OC(C)C)Oc2ccccc2)C=C[C@H](n2cc(C)c(=O)[nH]c2=O)O1` [Compound I-1, Isopropyl ((R)-(((2R,5R)-2-Ethynyl-5-(5-methyl-2,4-dioxo-3,4-dihydropyrimidin-1(2H)-yl)-2,5-dihydrofuran-2-yl)methoxy)(phenoxy)phosphoryl)-L-alaninate] are > 500 nM and 50 to 500 nM. As to `C#C[C@@]1(COP(=O)(N[C@@H](C)C(=O)OC)Oc2ccc(Br)cc2)C=C[C@H](n2cc(C)c(=O)[nH]c2=O)O1` (single isomer, unassigned) [P-Diastereomer 2 from Example 2; I-7 or I-8], the IC50 in assay [2] was in the range of 50 to 500 nM. As to `C#C[C@@]1(COP(=O)(N[C@@H](C)C(=O)OC)Oc2ccc(Br)cc2)C=C[C@H](n2cc(C)c(=O)[nH]c2=O)O1` (single isomer, unassigned) [P-Diastereomer 1 from Example 2; I-7 or I-8], the IC50 in assay [1] lay in the range of 50 to 500 nM. With `C#C[C@@]1(COP(=O)(NCc2ccccc2)OCCSC(=O)C(C)(C)CO)C=C[C@H](n2cc(C)c(=O)[nH]c2=O)O1` (single isomer, unassigned) [P-Diastereomer 1 from Example 3; II-1 or II-2], the IC50 in assay [1] and in assay [2] was 50 to 500 nM each time. As to `C#C[C@@]1(COP(=O)(NC(C)(C)C(=O)OC(C)C)Oc2ccccc2)C=C[C@H](n2cc(C)c(=O)[nH]c2=O)O1` (single isomer, unassigned) [P-Diastereomer 1 from Example 2; II-22 or II-23], the IC50 in assay [1] was > 500 nM. As for `C#C[C@@]1(CO[P@](=O)(N[C@@H](C)C(=O)OCC(CC)CC)Oc2ccccc2)C=C[C@H](n2cc(C)c(=O)[nH]c2=O)O1` [Compound I-5, 2-Ethylbutyl ((R)-(((2R,5R)-2-Ethynyl-5-(5-methyl-2,4-dioxo-3,4-dihydropyrimidin-1(2H)-yl)-2,5-dihydrofuran-2-yl)methoxy)(phenoxy)phosphoryl)-L-alaninate], the IC50 in assay [1] and in assay [2] was 50 to 500 nM throughout.

With `C#C[C@@]1(CO[P@@](=O)(N[C@@H](C)C(=O)OCC(CC)CC)Oc2ccccc2)C=C[C@H](n2cc(C)c(=O)[nH]c2=O)O1` [Compound I-6, 2-Ethylbutyl ((S)-(((2R,5R)-2-Ethynyl-5-(5-methyl-2,4-dioxo-3,4-dihydropyrimidin-1(2H)-yl)-2,5-dihydrofuran-2-yl)methoxy)(phenoxy)phosphoryl)-L-alaninate], the half-inhibitory concentration (IC50) in assay [1] and in assay [2] was 50 to 500 nM throughout.

Regarding `C#C[C@@]1(COP(=O)(NC(C)(C)C(=O)OC(C)C)Oc2ccccc2)C=C[C@H](n2cc(C)c(=O)[nH]c2=O)O1` (single isomer, unassigned) [P-Diastereomer 2 from Example 2; II-22 or II-23], in assay [1], the IC50 is > 500 nM.

`C#C[C@@]1(COP(=O)(N[C@@H](C)C(=O)OCc2ccccc2)Oc2ccccc2)C=C[C@H](n2cc(C)c(=O)[nH]c2=O)O1` (mixture of isomers) [Benzyl ((((2R,5R)-2-Ethynyl-5-(5-methyl-2,4-dioxo-3,4-dihydropyrimidin-1(2H)-yl)-2,5-dihydrofuran-2-yl)methoxy)(phenoxy)phosphoryl)-L-alaninate] registered an IC50 in assay [1] of 50 to 500 nM. Still for that read-out and setting: then `C#C[C@@]1(COP(=O)(OCOC(=O)OC(C)C)OCOC(=O)OC(C)C)C=C[C@H](n2cc(C)c(=O)[nH]c2=O)O1` [IV-1, 1-[(2R,5R)-5-[({di[(isopropoxycarbonyl)oxy]methoxyphosphoryl}oxy)methyl]-5-ethynyl-2H-furan-2-yl]-5-methyl-3H-pyrimidine-2,4-dione], with ≤ 50 nM.
